Experimental data as given in US6333337A, “Potassium channel inhibitors” (ICAgen, Inc., priority 1999, dated 2001).
pIC50: −log10 of the molar value.

Experiments:
[1] = molecular target: T1, Kv1.5 potassium channel (Homo sapiens, UniProt P22460); test: Electrophysiological studies, whole cell patch clamp, inhibition of Kv1.5 potassium currents in Chinese hamster ovary cells; assay type: cell-based; settings: CHO cells
T1 construct: expressed in transfected cells
Protocol: Electrophysiological recordings of potassium currents in Chinese hamster ovary cells stably expressing the gene construct for the Kv1.5 potassium channel subunit were performed using the whole cell configuration of the patch clamp technique (Hamill et al., Pflugers Archiv 391:85, 1981). Cell lines expressing Kv1.5 were prepared using standard techniques known to those skilled in the art. Cells were plated on glass coverslips at a density of 2×10^4 cells/coverslip and used within 24-48 hours. Solutions used for electrophysiological recordings were as follows. Extracellular bathing solutions contained (in mM) 132 NaCl, 5.4 KCl, 1.8 CaCl2, 0.8 MgCl2, 10 HEPES, 5 glucose at pH 7.3. Electrode pipette solutions for measuring Kv1.5 contain (in mM) 100 KCl 5 NaCl, 2 MgCl2, 5 mM EGTA, 10 mM HEPES and 5 glucose at pH 7.4, 295 mOsm. The coverslips were placed in a small chamber (volume ~200 μl) on the mechanical stage of an inverted microscope and perfused (2 ml/min) with extracellular recording solution. Drug was applied using a series of narrow-bore glass capillary tubes (inner diameter ~100 μm) positioned approximately 200 μm from the cell.

[2] = molecular target: T2, human Kv1.5 (Homo sapiens, UniProt P22460); test: 86Rb efflux assay, inhibition of 86Rb efflux through Kv1.5 potassium channels expressed in CHO cells; assay type: cell-based; settings: Kv1.5 in CHO cells, 70 mM KCl, 1 minute
T2 construct: expressed in transfected cells
Protocol: Cells stably transfected with cDNA for human Kv1.5 (in pcDNA3 vector) were grown as confluent monolayers in 96 well tissue culture plates in MEM alpha with 10% heat inactivated fetal bovine serum and 400 μg/ml G418. Cells were incubated overnight in growth media containing 1 μCi/ml ^86 Rb to permit intracellular uptake of the isotope. At the end of the incubation period, the ^86 Rb solution was aspirated and the cells washed three times with Earls Balanced Salt Solution (EBSS) which contained (in mM) 132 NaCl 5.4 KCl, 1.8 CaCl2, 0.8 mM MgCl2 10 mM HEPES and 5 mM glucose. The cells were then preincubated for 10 minutes at room temperature in 100 μl/well of EBSS or EBSS containing test compounds. At the end of this period the wells were aspirated and to each well was then added 100 μl of a modified EBSS solution containing 70 mM KCl (NaCl replaced by KCl) and the compound to be tested. The high KCl concentration was utilized to depolarize the cells to membrane potentials that would activate Kv1.5 channels. After a 1 minute incubation in 70 mM KCl EBSS plus test compound, the solution was removed and placed into the appropriate well of a 96 well counting plate for analysis. Finally 100 μl of 0.1% sodium docecyl sulfate in EBSS was added to each well to lyse the cells. The lysate was taken for analysis to determine final cell content of ^86 Rb. Samples were counted in a Wallac Microbeta liquid scintillation counter by Cerenkov emission. Efflux was expressed as a percentage of the initial cell content of ^86 Rb.
The testing results of selective compounds from Tables 1A-C using this assay are reported in Table 2 (flux) as the potency for inhibition of ^86 Rb efflux through Kv1.5 potassium channels expressed in CHO cells by compounds of the invention.

T2 sequence (P22460 whole entry): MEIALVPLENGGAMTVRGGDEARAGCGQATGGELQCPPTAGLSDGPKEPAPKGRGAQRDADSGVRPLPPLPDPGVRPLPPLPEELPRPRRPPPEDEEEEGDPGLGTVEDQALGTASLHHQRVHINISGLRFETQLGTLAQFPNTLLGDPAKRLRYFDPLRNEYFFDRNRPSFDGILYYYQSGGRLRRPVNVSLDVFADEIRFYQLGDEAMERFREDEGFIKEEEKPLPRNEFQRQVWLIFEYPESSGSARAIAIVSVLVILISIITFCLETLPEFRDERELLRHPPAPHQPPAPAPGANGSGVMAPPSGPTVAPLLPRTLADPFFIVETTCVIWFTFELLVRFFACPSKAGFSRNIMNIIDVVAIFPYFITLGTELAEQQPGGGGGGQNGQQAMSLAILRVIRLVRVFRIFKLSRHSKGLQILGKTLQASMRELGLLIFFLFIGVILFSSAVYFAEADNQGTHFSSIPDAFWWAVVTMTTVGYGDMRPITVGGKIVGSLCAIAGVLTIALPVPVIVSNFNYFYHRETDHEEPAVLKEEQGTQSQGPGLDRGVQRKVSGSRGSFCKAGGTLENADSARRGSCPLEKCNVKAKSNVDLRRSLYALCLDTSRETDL
T1 sequence (P22460 whole entry): as above

Row | SMILES | pIC50 [1] | pIC50 [2]
1 | CCc1ccc(S(=O)(=O)NC2c3cc(NC(=O)c4ccccc4OC)ccc3CCC2O)cc1 (stereo not drawn) [Entry 13] | 6.40 | < 4.30
2 | Cc1cccc(C(=O)Nc2ccc3c(c2)C(NS(=O)(=O)c2cccc(C)c2)C(O)CC3)c1 (stereo not drawn) [Entry 97] |  | 4.41
3 | CCc1ccc(S(=O)(=O)NC2c3cc(NC(=O)c4cccs4)ccc3CCC2O)cc1 (stereo not drawn) [Entry 103] |  | 4.70
4 | CCc1ccc(S(=O)(=O)NC2c3cc(NC(=O)C4Cc5ccccc5CN4CC)ccc3CCC2O)cc1 (stereo not drawn) [Entry 24] | 6.22 | 5.23
5 | CCc1ccc(S(=O)(=O)NC2c3cc(N(Cc4cccnc4)C(=O)C4CC4)ccc3CCC2O)cc1 (stereo not drawn) [Entry 123] | 7.00 | 
6 | CCc1ccc(S(=O)(=O)NC2c3cc(NC(=O)c4cccc(OC)c4)ccc3CCC2O)cc1 (stereo not drawn) [Entry 1] | 6.60 | 5.17
7 | CCCCc1ccc(S(=O)(=O)NC2c3cc(NC(=O)c4cccc(OC)c4)ccc3CCC2O)cc1 (stereo not drawn) [Entry 19] | 7.30 | 5.54
8 | COc1cc(C)c(S(=O)(=O)NC2c3cc(NC(=O)c4ccccc4)ccc3CCC2O)c(C)c1C (stereo not drawn) [Entry 110] |  | 4.92
9 | CCc1ccc(S(=O)(=O)NC2c3cc(NC(=O)c4cccc(OC)c4)ccc3CCC2O)cc1 (stereo not drawn) [Entry 158] | 6.22 | 
10 | CCc1ccc(S(=O)(=O)NC2c3cc(NC(=O)C#Cc4ccccc4)ccc3CCC2O)cc1 (stereo not drawn) [Entry 28] | 7.05 | 5.23
11 | CCc1ccc(S(=O)(=O)N(Cc2cccnc2)C2c3cc(NC(=O)c4cccc(OC)c4)ccc3CCC2O)cc1 (stereo not drawn) [Entry 132] | 6.30 | 
12 | CCCc1ccc(S(=O)(=O)NC2c3cc(NC(=O)c4ccc([N+](=O)[O-])cc4)ccc3CCC2O)cc1 (stereo not drawn) [Entry 85] |  | 4.34
13 | CCc1ccc(S(=O)(=O)NC2c3cc(N(Cc4cccnc4)C(=O)C4CC4)ccc3CCC2O)cc1 (stereo not drawn) [Entry 162] | 6.70 | 
14 | CCc1ccc(S(=O)(=O)N[C@H]2c3cc(NCc4ccc(OC(F)(F)F)cc4)ccc3CC[C@@H]2O)cc1 (relative stereo) [Entry 60, trans-N1-(4-ethylphenylsulfonyl)-N7-(4-trifluoromethoxybenzyl)-1,7-diamino-1,2,3,4-tetrahydro-2-naphthalenol] | 6.30 | < 4.30
15 | CCc1ccc(C(=O)Nc2ccc3c(c2)C(NS(=O)(=O)c2ccc(C(C)C)cc2)C(O)CC3)cc1 (stereo not drawn) [Entry 40] |  | 5.05
16 | COc1cccc(C(=O)Nc2ccc3c(c2)C(NS(=O)(=O)Cc2ccccc2)C(O)CC3)c1 (stereo not drawn) [Entry 70] | 5.68 | 4.54
17 | CCc1ccc(S(=O)(=O)NC2c3cc(NC(=O)C4CCCN4Cc4cccc(Cl)c4)ccc3CCC2O)cc1 (stereo not drawn) [Entry 135] | 7.00 | 
